Laboratory results taken from patent publication US11479559B2, “Urea-substituted aromatic ring-linked dioxinoquinoline compounds, preparation method and uses thereof” (BEIJING SCITECH-MQ PHARMACEUTICALS LIMITED, priority 2018, dated 2022).
Read-outs that look alike come from different tables or passages of the source.

Target: RET tyrosine kinase (Homo sapiens (Human), UniProt P07949)
Test: Assay of small molecular compounds for inhibiting the activity of RET kinase (LANCE TR-FRET)
Method: The assay is based on the LANCE TR-FRET technology of Perkin Elmer Inc., and the assay method is as follows:
2.5 μL of the gradient-diluted compounds were taken with a transfer pipette to a 384-well plate.
Addition of enzyme: 5 μL of 2× RET kinase solution (concentration was 0.8 nM) was taken with a transfer pipette to the corresponding reaction well of the 384-well plate, mixed well and pre-reacted at room temperature for 30 minutes.
2.5 μL 4× Ultra ULight™-JAK-1 (Tyr1023) Peptide (concentration was 200 nM)/ATP (concentration was 40 μM) mixture was taken with a transfer pipette to the corresponding reaction well of the 384-well plate.
The final concentration of DMSO in the reaction system was 4%.
The mixture was mixed well and then centrifuged and reacted at room temperature in dark for 60 min.
The 384-well plate was placed into the Envision plate reader and the signal was detected using the appropriate program.

Sequence of RET tyrosine kinase (P07949 29-1114): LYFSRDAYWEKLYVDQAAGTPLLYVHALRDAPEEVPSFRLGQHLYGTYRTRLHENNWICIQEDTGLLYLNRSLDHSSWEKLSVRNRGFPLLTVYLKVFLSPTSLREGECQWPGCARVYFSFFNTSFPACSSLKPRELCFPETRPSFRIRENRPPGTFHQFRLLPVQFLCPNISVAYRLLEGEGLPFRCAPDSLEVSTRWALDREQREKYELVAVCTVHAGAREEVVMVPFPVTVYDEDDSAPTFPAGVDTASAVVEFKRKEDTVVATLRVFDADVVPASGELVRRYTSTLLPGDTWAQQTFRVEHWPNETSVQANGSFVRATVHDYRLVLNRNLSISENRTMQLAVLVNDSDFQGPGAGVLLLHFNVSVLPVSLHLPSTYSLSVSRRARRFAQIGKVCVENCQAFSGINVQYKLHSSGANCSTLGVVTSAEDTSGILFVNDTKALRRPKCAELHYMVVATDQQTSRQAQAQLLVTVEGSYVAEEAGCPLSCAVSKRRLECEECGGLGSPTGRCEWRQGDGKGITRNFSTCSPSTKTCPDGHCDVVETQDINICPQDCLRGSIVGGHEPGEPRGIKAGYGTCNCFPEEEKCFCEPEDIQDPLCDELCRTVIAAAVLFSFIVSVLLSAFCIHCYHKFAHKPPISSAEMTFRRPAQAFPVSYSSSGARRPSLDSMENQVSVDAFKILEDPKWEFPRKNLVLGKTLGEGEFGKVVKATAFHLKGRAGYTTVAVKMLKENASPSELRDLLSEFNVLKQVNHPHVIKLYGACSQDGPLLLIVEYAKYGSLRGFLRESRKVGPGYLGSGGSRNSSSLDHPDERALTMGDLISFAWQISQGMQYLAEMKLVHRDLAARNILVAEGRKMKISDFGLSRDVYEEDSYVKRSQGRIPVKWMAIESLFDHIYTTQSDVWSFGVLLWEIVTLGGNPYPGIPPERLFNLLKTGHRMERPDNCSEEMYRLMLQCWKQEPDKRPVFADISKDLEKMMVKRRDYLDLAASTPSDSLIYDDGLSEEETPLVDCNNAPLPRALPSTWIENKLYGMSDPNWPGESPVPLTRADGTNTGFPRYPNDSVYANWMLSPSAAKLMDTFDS

Row | SMILES | IC50 | IC50 (read-out: RET IC50)
1 | COCCCOc1cc2nccc(Oc3ccc(NC(=O)NC4CCCC4)c(Cl)c3)c2c2c1OCCO2 [Example 73, 1-(2-chloro-4-((5-(3-methoxypropoxy)-2,3-dihydro-[1,4]dioxino[2,3-f]quinolin-10-yl)oxy)phenyl)-3-cyclopentylurea] | 0.05 to 0.5 µM | 
2 | CC(C)COc1cc2nccc(Oc3ccc(NC(=O)NC4CC4)c(Cl)c3)c2c2c1OCCO2 [Example 45, 1-(2-chloro-4-((5-isobutoxy-2,3-dihydro-[1,4]dioxino[2,3-f]quinolin-10-yl)oxy)phenyl)-3-cyclopropylurea] |  | < 0.05 µM
3 | COCCCOc1cc2nccc(Oc3ccc(NC(=O)Nc4ccc(Cl)c(C(F)(F)F)c4)cc3F)c2c2c1OCCO2 [Example 38, 1-(4-chloro-3-(trifluoromethyl)phenyl)-3-(3-fluoro-4-((5-(3-methoxypropoxy)-2,3-dihydro-[1,4]dioxino[2,3-f]quinolin-10-yl)oxy)phenyl)urea] | 0.05 to 0.5 µM | 
4 | COc1cc2nccc(Oc3ccc(NC(=O)Nc4ccc(F)cc4F)cc3)c2c2c1OCCO2 [Example 4, 1-(2,4-difluorophenyl)-3-(4-((5-methoxy-2,3-dihydro-[1,4]dioxino[2,3-f]quinolin-10-yl)oxy)phenyl)urea] | 0.05 to 0.5 µM | 
5 | COCCCOc1cc2nccc(Oc3ccc(NC(=O)Nc4ccc(Cl)c(C(F)(F)F)c4)c(F)c3)c2c2c1OCCO2 [Example 39, 1-(4-chloro-3-(trifluoromethyl)phenyl)-3-(2-fluoro-4-((5-(3-methoxypropoxy)-2,3-dihydro-[1,4]dioxino[2,3-f]quinolin-10-yl)oxy)phenyl)urea] | 0.05 to 0.5 µM | 
6 | O=C(Nc1ccc(Oc2ccnc3cc(OCCCN4CCS(=O)(=O)CC4)c4c(c23)OCCO4)cc1)Nc1ccc(Cl)c(C(F)(F)F)c1 [Example 23, 1-(4-chloro-3-(trifluoromethyl)phenyl)-3-(4-((5-(3-(1,1-dioxothiomorpholino)propoxy)-2,3-dihydro-[1,4]dioxino[2,3-f]quinolin-10-yl)oxy)phenyl)urea] | 0.05 to 0.5 µM | 
7 | N#CCOc1cc2nccc(Oc3ccc(NC(=O)Nc4ccc(Cl)c(C(F)(F)F)c4)cc3)c2c2c1OCCO2 [Example 13, 1-(4-chloro-3-(trifluoromethyl)phenyl)-3-(4-((5-(cyanomethoxy)-2,3-dihydro-[1,4]dioxino[2,3-f]quinolin-10-yl)oxy)phenyl)urea] | 0.05 to 0.5 µM | 
8 | CC(=O)N1CCN(CCCOc2cc3nccc(Oc4ccc(NC(=O)Nc5ccc(Cl)c(C(F)(F)F)c5)cc4)c3c3c2OCCO3)CC1 [Example 22, 1-(4-((5-(3-(4-acetylpiperazin-1-yl)propoxy)-2,3-dihydro-[1,4]dioxino[2,3-f]quinolin-10-yl)oxy)phenyl)-3-(4-chloro-3-(trifluoromethyl)phenyl)urea] |  | < 0.05 µM
9 | COCCCCCCOc1cc2nccc(Oc3ccc(NC(=O)Nc4ccc(Cl)c(C(F)(F)F)c4)cc3)c2c2c1OCCO2 [Example 29, 1-(4-chloro-3-(trifluoromethyl)phenyl)-3-(4-((5-((6-methoxyhexyl)oxy)-2,3-dihydro-[1,4]dioxino[2,3-f]quinolin-10-yl)oxy)phenyl)urea] |  | < 0.05 µM
10 | CC(C)Oc1cc2nccc(Oc3ccc(NC(=O)NC4CC4)c(Cl)c3)c2c2c1OCCO2 [Example 44, 1-(2-chloro-4-((5-isopropoxy-2,3-dihydro-[1,4]dioxino[2,3-f]quinolin-10-yl)oxy)phenyl)-3-cyclopropylurea] |  | < 0.05 µM
11 | COCCOc1cc2nccc(Oc3ccc(NC(=O)Nc4cc(C(F)(F)F)ccc4F)cc3)c2c2c1OCCO2 [Example 34, 1-(2-fluoro-5-(trifluoromethyl)phenyl)-3-(4-((5-(2-methoxyethoxy)-2,3-dihydro-[1,4]dioxino[2,3-f]quinolin-10-yl)oxy)phenyl)urea] | < 0.05 µM | 
12 | COc1cc2nccc(Oc3ccc(NC(=O)Nc4cc(C(F)(F)F)ccc4F)cc3)c2c2c1OCCO2 [Example 2, 1-(2-fluoro-5-(trifluoromethyl)phenyl)-3-(4-((5-methoxy-2,3-dihydro-[1,4]dioxino[2,3-f]quinolin-10-yl)oxy)phenyl)urea] |  | < 0.05 µM
13 | COCCOc1cc2nccc(Oc3ccc(NC(=O)Nc4ccc(Cl)c(C(F)(F)F)c4)cc3)c2c2c1OCCO2 [Example 8, 1-(4-chloro-3-(trifluoromethyl)phenyl)-3-(4-((5-(2-methoxyethoxy)-2,3-dihydro-[1,4]dioxino[2,3-f]quinolin-10-yl)oxy)phenyl)urea] |  | < 0.05 µM
14 | O=C(Nc1ccc(Cl)c(C(F)(F)F)c1)Nc1ccc(Oc2ccnc3cc(OCCCN4CCOCC4)c4c(c23)OCCO4)cc1F [Example 42, 1-(4-chloro-3-(trifluoromethyl)phenyl)-3-(2-fluoro-4-((5-(3-morpholinopropoxy)-2,3-dihydro-[1,4]dioxino[2,3-f]quinolin-10-yl)oxy)phenyl)urea] |  | < 0.05 µM
15 | COCCOc1cc2nccc(Oc3ccc(NC(=O)NC4CCCC4)c(Cl)c3)c2c2c1OCCO2 [Example 71, 1-(2-chloro-4-((5-(2-methoxyethoxy)-2,3-dihydro-[1,4]dioxino[2,3-f]quinolin-10-yl)oxy)phenyl)-3-cyclopentylurea] | < 0.05 µM | 
16 | O=C(Nc1ccc(Oc2ccnc3cc(OC4COC4)c4c(c23)OCCO4)cc1Cl)NC1CC1 [Example 65, 1-(2-chloro-4-((5-(oxetan-3-yloxy)-2,3-dihydro-[1,4]dioxino[2,3-f]quinolin-10-yl)oxy)phenyl)-3-cyclopropylurea] |  | < 0.05 µM

Row | SMILES | IC50 | IC50 (read-out: RET IC50)
17 | COc1cc2nccc(Oc3ccc(NC(=O)NC4CCC4)c(Cl)c3)c2c2c1OCCO2 [Example 68, 1-(2-chloro-4-((5-methoxy-2,3-dihydro-[1,4]dioxino[2,3-f]quinolin-10-yl)oxy)phenyl)-3-cyclobutylurea] |  | < 0.05 µM
18 | O=C(Nc1ccc(Oc2ccnc3cc(OC4COC4)c4c(c23)OCCO4)cc1)Nc1ccc(Cl)c(C(F)(F)F)c1 [Example 31] | 0.05 to 0.5 µM | 
19 | COc1cc2nccc(Oc3ccc(NC(=O)NC4CCCC4)c(Cl)c3)c2c2c1OCCO2 [Example 69, 1-(2-chloro-4-((5-methoxy-2,3-dihydro-[1,4]dioxino[2,3-f]quinolin-10-yl)oxy)phenyl)-3-cyclopentylurea] |  | < 0.05 µM
20 | O=C(Nc1ccc(Oc2ccnc3cc(OCCCN4CCOCC4)c4c(c23)OCCO4)cc1Cl)NC1CCCC1 [Example 75, 1-(2-chloro-4-((5-(3-morpholinopropoxy)-2,3-dihydro-[1,4]dioxino[2,3-f]quinolin-10-yl)oxy)phenyl)-3-cyclopentylurea] | < 0.05 µM | 
21 | COCCOc1cc2nccc(Oc3ccc(NC(=O)Nc4ccc(Cl)c(C(F)(F)F)c4)cc3F)c2c2c1OCCO2 [Example 36, 1-(4-chloro-3-(trifluoromethyl)phenyl)-3-(3-fluoro-4-((5-(2-methoxyethoxy)-2,3-dihydro-[1,4]dioxino[2,3-f]quinolin-10-yl)oxy)phenyl)urea] |  | < 0.05 µM
22 | COCCOc1cc2nccc(Oc3ccc(NC(=O)Nc4ccc(Cl)c(C(F)(F)F)c4)c(F)c3)c2c2c1OCCO2 [Example 37, 1-(4-chloro-3-(trifluoromethyl)phenyl)-3-(2-fluoro-4-((5-(2-methoxyethoxy)-2,3-dihydro-[1,4]dioxino[2,3-f]quinolin-10-yl)oxy)phenyl)urea] | < 0.05 µM | 
23 | COCCCOc1cc2nccc(Oc3ccc(NC(=O)Nc4cc(C(F)(F)F)ccc4F)cc3)c2c2c1OCCO2 [Example 40, 1-(2-fluoro-5-(trifluoromethyl)phenyl)-3-(4-((5-(3-methoxypropoxy)-2,3-dihydro-[1,4]dioxino[2,3-f]quinolin-10-yl)oxy)phenyl)urea] |  | < 0.05 µM
24 | CCOc1cc2nccc(Oc3ccc(NC(=O)Nc4ccc(Cl)c(C(F)(F)F)c4)c(F)c3)c2c2c1OCCO2 [Example 35, 1-(4-chloro-3-(trifluoromethyl)phenyl)-3-(4-((5-ethoxy-2,3-dihydro-[1,4]dioxino[2,3-f]quinolin-10-yl)oxy)-2-fluorophenyl)urea] |  | < 0.05 µM
25 | COc1cc2nccc(Oc3ccc(NC(=O)NCC(C)C)c(Cl)c3)c2c2c1OCCO2 [Example 83, 1-(2-chloro-4-((5-methoxy-2,3-dihydro-[1,4]dioxino[2,3-f]quinolin-10-yl)oxy)phenyl)-3-isobutylurea] | 0.05 to 0.5 µM | 
26 | O=C(Nc1ccc(Oc2ccnc3cc(OC4CCOCC4)c4c(c23)OCCO4)cc1)Nc1ccc(Cl)c(C(F)(F)F)c1 [Example 33, 1-(4-chloro-3-(trifluoromethyl)phenyl)-3-(4-((5-((tetrahydro-2H-pyran-4-yl)oxy)-2,3-dihydro-[1,4]dioxino[2,3-f]quinolin-10-yl)oxy)phenyl)urea] | 0.05 to 0.5 µM | 
27 | COc1cc2nccc(Oc3ccc(NC(=O)NC(C)C)c(Cl)c3)c2c2c1OCCO2 [Example 82, 1-(2-chloro-4-((5-methoxy-2,3-dihydro-[1,4]dioxino[2,3-f]quinolin-10-yl)oxy)phenyl)-3-isopropylurea] |  | < 0.05 µM
28 | CC1(C)CCN(CCCOc2cc3nccc(Oc4ccc(NC(=O)Nc5ccc(Cl)c(C(F)(F)F)c5)cc4)c3c3c2OCCO3)CC1 [Example 24, 1-(4-chloro-3-(trifluoromethyl)phenyl)-3-(4-((5-(3-(4,4-dimethylpiperidin-1-yl)propoxy)-2,3-dihydro-[1,4]dioxino[2,3-f]quinolin-10-yl)oxy)phenyl)urea] |  | < 0.05 µM
29 | COc1cc2nccc(Oc3ccc(NC(=O)Nc4ccc(Cl)c(C(F)(F)F)c4)c(F)c3)c2c2c1OCCO2 [Example 6, 1-(4-chloro-3-(trifluoromethyl)phenyl)-3-(2-fluoro-4-((5-methoxy-2,3-dihydro-[1,4]dioxino[2,3-f]quinolin-10-yl)oxy)phenyl)urea] |  | < 0.05 µM
30 | O=C(Nc1ccc(Oc2ccnc3cc(OCCCN4CCOCC4)c4c(c23)OCCO4)cc1)Nc1cc(C(F)(F)F)ccc1F [Example 76, 1-(2-fluoro-5-(trifluoromethyl)phenyl)-3-(4-((5-(3-morpholinopropoxy)-2,3-dihydro-[1,4]dioxino[2,3-f]quinolin-10-yl)oxy)phenyl)urea] |  | < 0.05 µM
31 | COc1cc2nccc(Oc3ccc(NC(=O)Nc4ccc(F)cc4)cc3)c2c2c1OCCO2 [Example 3, 1-(4-fluorophenyl)-3-(4-((5-methoxy-2,3-dihydro-[1,4]dioxino[2,3-f]quinolin-10-yl)oxy)phenyl)urea] | 0.05 to 0.5 µM | 
